# Measurements taken from patent US6340679B1, “Guanidine derivatives as inhibitors of cell adhesion” (Aventis Pharma Deutschland GmbH, priority 1999, dated 2002).
# What was measured:
# [1] = target: T1, human vitronectin receptor αvβ3 (Homo sapiens, UniProt P05106+P06756); assay: Inhibition of the binding of kistrin to human vitronectin receptor (αvβ3 ELISA Test, K/VnR)
# T1 construct: Human vitronectin receptor was obtained from the human placenta; from tissue; host or cells: human placenta
# Text: The inhibition of the binding of kistrin to human vitronectin receptor (VnR) described below is a test method by which, for example, the antagonistic action of the compounds according to the invention on the vitronectin receptor αvβ3 can be determined (αvβ3 ELISA Test; the test method is abbreviated as “K/VnR” in the listing of the test results).
# Kistrin was purified according to the methods of Dennis et al., as described in Proc. Natl. Acad. Sci. USA 87 (1989) 2471-2475 and PROTEINS: Structure, Function and Genetics 15 (1993) 312-321.
# Human vitronectin receptor was obtained from the human placenta according to the method of Pytela et al., Methods Enzymol. 144 (1987) 475. Human vitronectin receptor αvβ3 can also be obtained from some cell lines (for example from 293 cells, a human embryonic kidney cell line) which are co-transfected with DNA sequences for both subunits αv and β3 of the vitronectin receptor. The subunits are extracted with octyl glycoside and then chromatographed through concanavalin A, heparin-Sepharose and S-300.
# Murine monoclonal antibodies which are specific for the β3 subunits of the vitronectin receptor were prepared according to the method of Newman et al., Blood (1985) 227-232, or by a similar process. The rabbit Fab 2 anti-mouse Fc conjugate to horseradish peroxidase (anti-mouse Fc HRP) was obtained from Pel Freeze (Catalog No. 715 305-1).
# The ability of substances to inhibit the binding of kistrin to the vitronectin receptor can be determined using an ELISA test. For this purpose, Nunc 96-well microtiter plates were coated with a solution of kistrin (0.002 mg/ml) according to the method of Dennis et al., as described in PROTEINS: Structure, Function and Genetics 15 (1993) 312-321. The plates were then washed twice with PBS/0.05% Tween-20 and blocked by incubating (60 min) with bovine serum albumin (BSA, 0.5%, RIA grade or better) in buffer solution (Tris-HCl (50 mM), NaCl (100 mM), MgCl2 (1 mM), CaCl2 (1 mM), MnCl2 (1 mM), pH 7). Solutions of known inhibitors and of the test substances were prepared in concentrations from 2×10^−12 to 2×10^−6 mol/l in assay buffer (BSA (0.5%, RIA grade or better); Tris-HCl (50 mM), NaCl (100 mM), MgCl2 (1 mM), CaCl2 (1 mM), MnCl2 (1 mM), pH 7). The blocked plates were emptied, and in each case 0.025 ml of this solution which contained a defined concentration (2×10^−12 to 2×10^−6 mol/l ) either of a known inhibitor or of a test substance, were added to each well. 0.025 ml of a solution of the vitronectin receptor in assay buffer (0.03 mg/ml) was pipetted into each well of the plate and the plate was incubated at room temperature for 60-180 min on a shaker. In the meantime, a solution (6 ml/plate) of a murine monoclonal antibody specific for the β3 subunit of the vitronectin receptor was prepared in assay buffer (0.0015 mg/ml). A second rabbit antibody (0.001 ml of stock solution/6 ml of the murine monoclonal anti-β3 antibody solution) which was an anti-mouse Fc HRP antibody conjugate was added to this solution, and this mixture of murine anti-β3 antibody and rabbit anti-mouse Fc HRP antibody conjugate was incubated during the time of the receptor-inhibitor incubation. The test plates were washed four times with PBS solution which contained 0.05% Tween-20, and in each case 0.05 ml/well of the antibody mixture was pipetted into each well of the plate and incubated for 60-180 min. The plate was washed four times with PBS/0.05% Tween-20 and then developed with 0.05 ml/well of a PBS solution which contained 0.67 mg/ml of o-phenylenediamine and 0.012% of H2O2. Alternatively to this, o-phenylenediamine can be employed in a buffer (pH 5) which contains Na3PO4 and citric acid. The color development was stopped using 1 N H2SO4 (0.05 ml/well). The absorption for each well was measured at 492-405 nm and the data were evaluated by standard methods.
# [2] = target: GP IIb/IIIa (Homo sapiens, UniProt P05106+P08514); assay: Fibrinogen-GP IIbIIIa Receptor ELISA Binding Assay (GP IIb/IIIa); conditions: read-out: GP IIb/IIla IC50
# GP IIb/IIIa, sequence (P08514 32-887 limits assumed): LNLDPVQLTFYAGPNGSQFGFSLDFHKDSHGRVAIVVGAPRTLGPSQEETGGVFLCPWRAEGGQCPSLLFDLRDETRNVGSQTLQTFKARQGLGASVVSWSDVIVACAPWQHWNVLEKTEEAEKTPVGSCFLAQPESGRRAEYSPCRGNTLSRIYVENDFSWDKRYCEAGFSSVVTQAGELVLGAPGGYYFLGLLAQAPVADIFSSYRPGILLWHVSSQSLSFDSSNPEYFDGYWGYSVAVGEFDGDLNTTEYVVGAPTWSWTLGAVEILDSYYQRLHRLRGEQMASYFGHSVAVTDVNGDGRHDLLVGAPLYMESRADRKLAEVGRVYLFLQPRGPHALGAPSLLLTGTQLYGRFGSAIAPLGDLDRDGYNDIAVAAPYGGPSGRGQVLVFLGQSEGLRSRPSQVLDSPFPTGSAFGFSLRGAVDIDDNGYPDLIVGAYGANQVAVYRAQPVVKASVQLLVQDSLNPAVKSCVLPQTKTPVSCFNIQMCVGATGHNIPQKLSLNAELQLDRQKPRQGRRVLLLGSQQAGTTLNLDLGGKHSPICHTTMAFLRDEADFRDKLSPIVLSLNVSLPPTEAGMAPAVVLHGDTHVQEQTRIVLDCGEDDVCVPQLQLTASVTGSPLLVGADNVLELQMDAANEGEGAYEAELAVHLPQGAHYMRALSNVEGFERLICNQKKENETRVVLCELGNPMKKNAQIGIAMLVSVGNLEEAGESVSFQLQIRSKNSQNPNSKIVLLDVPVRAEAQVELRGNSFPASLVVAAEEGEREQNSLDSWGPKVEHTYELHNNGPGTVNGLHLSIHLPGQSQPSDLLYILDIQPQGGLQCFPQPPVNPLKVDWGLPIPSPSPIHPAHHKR
# GP IIb/IIIa, sequence (P08514 891-1039 partner limits assumed): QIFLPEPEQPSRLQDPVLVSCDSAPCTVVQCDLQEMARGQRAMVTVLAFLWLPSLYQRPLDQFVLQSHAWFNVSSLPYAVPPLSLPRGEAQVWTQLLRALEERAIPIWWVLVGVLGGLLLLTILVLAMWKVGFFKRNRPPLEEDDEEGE
# GP IIb/IIIa, sequence (P05106 27-788): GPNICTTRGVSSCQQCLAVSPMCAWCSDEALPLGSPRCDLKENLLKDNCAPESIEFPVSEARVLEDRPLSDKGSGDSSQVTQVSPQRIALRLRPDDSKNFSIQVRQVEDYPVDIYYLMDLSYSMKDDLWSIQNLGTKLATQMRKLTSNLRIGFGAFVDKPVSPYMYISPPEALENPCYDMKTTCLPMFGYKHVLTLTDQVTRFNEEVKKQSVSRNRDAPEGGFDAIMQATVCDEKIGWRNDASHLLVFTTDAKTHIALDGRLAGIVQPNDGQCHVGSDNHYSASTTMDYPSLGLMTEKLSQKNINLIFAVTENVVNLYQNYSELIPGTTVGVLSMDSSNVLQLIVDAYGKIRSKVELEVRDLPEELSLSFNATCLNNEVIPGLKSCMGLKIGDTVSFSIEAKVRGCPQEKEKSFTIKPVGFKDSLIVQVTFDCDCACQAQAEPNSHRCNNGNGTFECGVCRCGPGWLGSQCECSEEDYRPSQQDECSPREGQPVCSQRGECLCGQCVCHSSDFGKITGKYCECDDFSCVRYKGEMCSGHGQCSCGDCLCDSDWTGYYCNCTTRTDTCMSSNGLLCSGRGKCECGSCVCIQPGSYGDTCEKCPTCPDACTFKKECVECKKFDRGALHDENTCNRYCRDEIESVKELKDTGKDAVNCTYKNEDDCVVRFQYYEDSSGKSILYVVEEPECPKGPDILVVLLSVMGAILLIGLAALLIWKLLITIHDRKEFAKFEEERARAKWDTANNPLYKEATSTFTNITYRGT
# Description: The test for inhibition of GP IIb/IIIa (“Fibrinogen-GP IIbIIIa Receptor ELISA Binding Assay”) was carried out as described in U.S. Pat. No. 5,403,836 which is incorporated herein by reference (the test method is abbreviated as “GP IIb/IIa” in the listing of the test results).
# T1 sequence (P06756 31-889 limits assumed): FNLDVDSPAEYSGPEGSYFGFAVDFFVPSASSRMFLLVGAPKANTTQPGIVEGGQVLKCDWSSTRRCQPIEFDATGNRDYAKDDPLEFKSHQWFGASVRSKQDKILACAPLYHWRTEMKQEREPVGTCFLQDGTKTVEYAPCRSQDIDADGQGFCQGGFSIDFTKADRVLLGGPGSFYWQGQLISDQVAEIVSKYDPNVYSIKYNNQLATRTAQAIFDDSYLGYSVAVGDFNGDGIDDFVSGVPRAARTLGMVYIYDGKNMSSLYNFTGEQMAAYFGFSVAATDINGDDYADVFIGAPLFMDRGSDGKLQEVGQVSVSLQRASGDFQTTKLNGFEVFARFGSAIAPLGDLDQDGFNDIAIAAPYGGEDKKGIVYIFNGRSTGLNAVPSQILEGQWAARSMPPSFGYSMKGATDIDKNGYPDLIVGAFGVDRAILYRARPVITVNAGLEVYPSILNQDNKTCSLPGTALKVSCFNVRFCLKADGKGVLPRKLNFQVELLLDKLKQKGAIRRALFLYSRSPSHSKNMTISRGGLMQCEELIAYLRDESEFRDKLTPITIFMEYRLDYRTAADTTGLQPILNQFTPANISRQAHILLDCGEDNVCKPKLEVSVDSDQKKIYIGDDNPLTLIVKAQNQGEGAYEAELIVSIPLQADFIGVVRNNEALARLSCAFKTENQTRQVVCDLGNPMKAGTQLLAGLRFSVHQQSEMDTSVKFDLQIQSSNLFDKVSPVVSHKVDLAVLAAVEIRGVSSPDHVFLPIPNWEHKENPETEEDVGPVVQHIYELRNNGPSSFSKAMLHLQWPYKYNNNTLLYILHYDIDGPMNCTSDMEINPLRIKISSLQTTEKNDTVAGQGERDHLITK
# T1 sequence (P06756 891-1048 partner limits assumed): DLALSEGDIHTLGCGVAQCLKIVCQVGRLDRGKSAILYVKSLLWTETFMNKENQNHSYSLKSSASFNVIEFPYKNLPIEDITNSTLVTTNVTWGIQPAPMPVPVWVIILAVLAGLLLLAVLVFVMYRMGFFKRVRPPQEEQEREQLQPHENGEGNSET
# T1 sequence (P05106 27-788): as the sequence (P05106 27-788) above
IC50 [1] [nM],IC50 [2] [nM],Structure (SMILES)
3,765,"O=C(CCCOc1ccc(C[C@H](NS(=O)(=O)c2ccc(Cl)cc2)C(=O)O)cc1)NC1=NCCCN1 [Example 3, (2S)-2-(4-Chlorobenzenesulfonylamino)-3-{4-[3-(1,4,5,6-tetrahydropyrimidin-2-ylcarbamoyl)-propoxy]-phenyl}-propionic acid]"
2.8,410,"O=C(CCCOc1ccc(C[C@H](NS(=O)(=O)c2ccccc2)C(=O)O)cc1)NC1=NCCCN1 [Example 4, (2S)-2-Benzenesulfonylamino-3-{4-[3-(1,4,5,6-tetrahydropyrimidin-2-ylcarbamoyl)-propoxy]-phenyl}-propionic acid]"
3.5,3150,"O=C(CCCOc1ccc(C[C@H](NS(=O)(=O)c2ccc(C(F)(F)F)cc2)C(=O)O)cc1)NC1=NCCCN1 [Example 5, (2S)-3-{4-[3-(1,4,5,6-Tetrahydropyrimidin-2-ylcarbamoyl)-propoxy]-phenyl}-2-(4-trifluoromethylbenzenesulfonylamino)-propionic acid]"
2.8,720,"Cc1ccc(S(=O)(=O)N[C@@H](Cc2ccc(OCCCC(=O)NC3=NCCCN3)cc2)C(=O)O)cc1 [Example 6, (2S)-3-{4-[3-(1,4,5,6-Tetrahydropyrimidin-2-ylcarbamoyl)-propoxy]-phenyl}-2-(toluene4-sulfonylamino)-propionic acid]"
3.5,950,"O=C(CCCOc1ccc(C[C@H](NS(=O)(=O)c2ccc(Br)cc2)C(=O)O)cc1)NC1=NCCCN1 [Example 7, (2S)-2-(4-Bromobenzenesulfonylamino)-3-{4-[3-(1,4,5,6-tetrahydropyrimidin-2-ylcarbamoyl)-propoxy]-phenyl}-propionic acid]"
2.5,330,"O=C(CCCOc1ccc(C[C@H](NS(=O)(=O)c2cccs2)C(=O)O)cc1)NC1=NCCCN1 [Example 8, (2S)-3-{4-[3-(1,4,5,6-Tetrahydropyrimidin-2-ylcarbamoyl)-propoxy]-phenyl}-2-(thiophene-2-sulfonylamino)-propionic acid]"

# Further lines, the molecule ahead of its results:
Structure (SMILES),IC50 [1] [nM],IC50 [2] [nM]
"O=C(CCCOc1ccc(C[C@H](NS(=O)(=O)c2ccc3ccccc3c2)C(=O)O)cc1)NC1=NCCCN1 [Example 1, (2S)-2-(Naphthalene-2-sulfonylamino)-3-{4-[3-(1,4,5,6-tetrahydropyrimidin-2-ylcarbamoyl)-propoxy]-phenyl}-propionic acid]",7.5,260
"O=C(CCCOc1ccc(C[C@H](NS(=O)(=O)c2cccc3ccccc23)C(=O)O)cc1)NC1=NCCCN1 [Example 2, (2S)-2-(Naphthalene-1-sulfonylamino)-3-{4-[3-(1,4,5,6-tetrahydropyrimidin-2-ylcarbamoyl)-propoxy]-phenyl}-propionic acid]",2.7,525
"CCCCS(=O)(=O)N[C@@H](Cc1ccc(OCCCC(=O)NC2=NCCCN2)cc1)C(=O)O [Example 9, (2S)-2-(Butane-1-sulfonylamino)-3-{4-[3-(1,4,5,6-tetrahydropyrimidin-2-ylcarbamoyl)-propoxy]-phenyl}-propionic acid]",5.3,2100
"CCCCCCCCS(=O)(=O)N[C@@H](Cc1ccc(OCCCC(=O)NC2=NCCCN2)cc1)C(=O)O [Example 10, (2S)-2-(Octane-1-sulfonylamino)-3-{4-[3-(1,4,5,6-tetrahydropyrimidin-2-ylcarbamoyl)-propoxy]-phenyl}-propionic acid]",7.6,2400
